Measurements published in US8623869B2, “Compounds useful as inhibitors of ATR kinase” (Vertex Pharmaceuticals Incorporated, priority 2010, dated 2014).

Target: T1, full-length ATR (Homo sapiens, UniProt Q13535)
T1 construct: Assays were carried out at 25° C. in the presence of 5 nM full-length ATR
Assay: ATR Inhibition Assay (radioactive-phosphate incorporation)
Type: biochemical
Settings: Ki(app); 5 nM full-length ATR, 10 μM ATP, 800 μM target peptide, 25° C.
Experimental: Compounds were screened for their ability to inhibit ATR kinase using a radioactive-phosphate incorporation assay. Assays were carried out in a mixture of 50 mM Tris/HCl (pH 7.5), 10 mM MgCl2 and 1 mM DTT. Final substrate concentrations were 10 μM [γ-33P]ATP (3mCi 33P ATP/mmol ATP, Perkin Elmer) and 800 μM target peptide (ASELPASQPQPFSAKKK).
Assays were carried out at 25° C. in the presence of 5 nM full-length ATR. An assay stock buffer solution was prepared containing all of the reagents listed above, with the exception of ATP and the test compound of interest. 13.5 μL of the stock solution was placed in a 96 well plate followed by addition of 2 μL of DMSO stock containing serial dilutions of the test compound (typically starting from a final concentration of 15 μM with 3-fold serial dilutions) in duplicate (final DMSO concentration 7%). The plate was pre-incubated for 10 minutes at 25° C. and the reaction initiated by addition of 15 μL [γ-33P]ATP (final concentration 10 μM).
The reaction was stopped after […] by the addition of 30 μL 0.1M phosphoric acid containing 2 mM ATP. A multiscreen phosphocellulose filter 96-well plate (Millipore, Cat no. MAPHN0B50) was pretreated with 100 μL 0.2M phosphoric acid prior to the addition of 45 μL of the stopped assay mixture. The plate was washed with 5×200 μL 0.2M phosphoric acid. After drying, 100 μL Optiphase ‘SuperMix’ liquid scintillation cocktail (Perkin Elmer) was added to the well prior to scintillation counting (1450 Microbeta Liquid Scintillation Counter, Wallac).
After removing mean background values for all of the data points, Ki(app) data were calculated from non-linear regression analysis of the initial rate data using the Prism software package (GraphPad Prism version 3.0cx for Macintosh, GraphPad Software, San Diego Calif., USA).

T1 sequence (Q13535 whole entry): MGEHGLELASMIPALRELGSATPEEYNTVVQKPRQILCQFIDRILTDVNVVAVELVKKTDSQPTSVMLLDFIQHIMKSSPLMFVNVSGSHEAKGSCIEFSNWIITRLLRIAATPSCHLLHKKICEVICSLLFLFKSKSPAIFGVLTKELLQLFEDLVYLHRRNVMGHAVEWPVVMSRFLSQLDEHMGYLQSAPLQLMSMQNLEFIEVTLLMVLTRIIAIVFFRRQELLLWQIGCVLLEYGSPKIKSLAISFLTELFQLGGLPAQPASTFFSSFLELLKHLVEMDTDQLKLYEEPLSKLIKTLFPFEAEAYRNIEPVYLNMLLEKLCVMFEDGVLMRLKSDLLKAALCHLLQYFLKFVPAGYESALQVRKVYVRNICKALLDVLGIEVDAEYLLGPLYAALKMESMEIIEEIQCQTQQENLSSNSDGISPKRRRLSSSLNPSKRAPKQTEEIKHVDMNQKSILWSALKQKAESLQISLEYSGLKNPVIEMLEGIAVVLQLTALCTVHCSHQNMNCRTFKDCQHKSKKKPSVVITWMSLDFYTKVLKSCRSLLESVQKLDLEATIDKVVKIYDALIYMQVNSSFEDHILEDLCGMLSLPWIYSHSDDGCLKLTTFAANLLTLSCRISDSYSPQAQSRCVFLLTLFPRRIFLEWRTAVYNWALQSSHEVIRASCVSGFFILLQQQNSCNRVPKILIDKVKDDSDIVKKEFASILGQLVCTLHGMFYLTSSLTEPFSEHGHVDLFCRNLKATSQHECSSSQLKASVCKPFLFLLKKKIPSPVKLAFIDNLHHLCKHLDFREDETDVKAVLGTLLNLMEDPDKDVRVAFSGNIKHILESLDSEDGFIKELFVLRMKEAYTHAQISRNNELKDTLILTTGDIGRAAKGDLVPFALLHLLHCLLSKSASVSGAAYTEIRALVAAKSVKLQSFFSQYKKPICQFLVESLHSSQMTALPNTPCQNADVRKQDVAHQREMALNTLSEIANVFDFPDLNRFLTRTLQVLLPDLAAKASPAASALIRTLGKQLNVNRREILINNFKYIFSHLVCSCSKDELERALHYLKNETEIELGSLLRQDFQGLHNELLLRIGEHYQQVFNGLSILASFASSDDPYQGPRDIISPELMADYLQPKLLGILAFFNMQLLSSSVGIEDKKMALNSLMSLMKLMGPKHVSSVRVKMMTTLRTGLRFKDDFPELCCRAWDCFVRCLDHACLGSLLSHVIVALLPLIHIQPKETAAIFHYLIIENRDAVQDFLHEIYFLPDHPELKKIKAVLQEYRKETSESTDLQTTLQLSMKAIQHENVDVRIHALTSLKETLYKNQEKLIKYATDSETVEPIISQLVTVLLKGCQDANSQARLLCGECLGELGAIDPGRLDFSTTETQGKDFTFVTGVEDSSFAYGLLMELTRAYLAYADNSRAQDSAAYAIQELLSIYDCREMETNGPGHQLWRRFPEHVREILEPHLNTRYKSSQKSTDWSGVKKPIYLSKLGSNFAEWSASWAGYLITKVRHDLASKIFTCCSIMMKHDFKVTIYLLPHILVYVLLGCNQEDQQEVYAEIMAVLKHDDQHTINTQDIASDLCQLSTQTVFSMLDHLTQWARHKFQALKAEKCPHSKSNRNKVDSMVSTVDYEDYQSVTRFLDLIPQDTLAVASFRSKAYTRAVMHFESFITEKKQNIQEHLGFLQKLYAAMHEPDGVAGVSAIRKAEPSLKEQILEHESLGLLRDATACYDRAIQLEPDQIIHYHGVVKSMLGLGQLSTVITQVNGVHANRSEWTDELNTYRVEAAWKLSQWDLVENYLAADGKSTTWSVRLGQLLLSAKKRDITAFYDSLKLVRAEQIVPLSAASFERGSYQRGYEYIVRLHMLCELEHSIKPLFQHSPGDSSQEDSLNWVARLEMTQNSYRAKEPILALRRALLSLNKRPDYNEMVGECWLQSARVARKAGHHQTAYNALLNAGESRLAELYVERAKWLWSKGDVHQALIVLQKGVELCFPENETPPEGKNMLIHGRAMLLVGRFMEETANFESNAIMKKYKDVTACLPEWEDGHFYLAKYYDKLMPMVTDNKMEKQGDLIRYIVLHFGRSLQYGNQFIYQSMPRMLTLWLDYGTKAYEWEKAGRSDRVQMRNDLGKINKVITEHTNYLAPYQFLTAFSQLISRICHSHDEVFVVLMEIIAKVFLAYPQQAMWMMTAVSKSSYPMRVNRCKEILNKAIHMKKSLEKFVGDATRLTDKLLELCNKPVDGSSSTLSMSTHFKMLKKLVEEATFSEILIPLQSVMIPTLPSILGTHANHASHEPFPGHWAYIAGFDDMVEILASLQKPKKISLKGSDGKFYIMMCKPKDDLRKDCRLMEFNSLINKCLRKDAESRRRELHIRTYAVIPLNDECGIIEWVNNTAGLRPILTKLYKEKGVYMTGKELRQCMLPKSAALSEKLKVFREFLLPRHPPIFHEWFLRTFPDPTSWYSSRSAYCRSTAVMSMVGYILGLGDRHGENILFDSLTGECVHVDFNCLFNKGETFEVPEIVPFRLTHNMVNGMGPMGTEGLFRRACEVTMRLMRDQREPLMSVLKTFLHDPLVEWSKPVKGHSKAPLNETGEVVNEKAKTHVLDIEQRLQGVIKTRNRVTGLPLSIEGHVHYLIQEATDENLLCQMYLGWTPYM

Structure (SMILES)	Ki [nM]
CC(C)S(=O)(=O)c1ccc(-c2cnc3[nH]cc(-c4cc5cc(Br)ccc5s4)c3n2)cc1 [Compound I-54, 7-(5-bromobenzothiophen-2-yl)-2-(4-isopropylsulfonylphenyl)-5H-pyrrolo[2,3-b]pyrazine]	> 50
Cc1ccsc1-c1c[nH]c2ncc(-c3ccc(S(=O)(=O)C(C)C)cc3)nc12 [Compound I-28, 2-(4-isopropylsulfonylphenyl)-7-(3-methyl-2-thienyl)-5H-pyrrolo[2,3-b]pyrazine]	> 50
CC(C)S(=O)(=O)c1ccc(-c2cnc3[nH]cc(-c4cscc4C#N)c3n2)cc1 [Compound I-21, 4-[2-(4-isopropylsulfonylphenyl)-5H-pyrrolo[2,3-b]pyrazin-7-yl]thiophene-3-carbonitrile]	> 50
Cc1ccc(-c2c[nH]c3ncc(-c4ccc(S(=O)(=O)C(C)C)cc4)nc23)s1 [Compound I-26, 2-(4-isopropylsulfonylphenyl)-7-(5-methyl-2-thienyl)-5H-pyrrolo[2,3-b]pyrazine]	10 to 50
CC(C)S(=O)(=O)c1ccc(-c2cnc3[nH]cc(-c4cn[nH]c4)c3n2)cc1 [Compound I-47, 2-(4-(isopropylsulfonyl)phenyl)-7-(1H-pyrazol-4-yl)-5H-pyrrolo[2,3-b]pyrazine]	10 to 50
Cc1ccc(-c2c[nH]c3ncc(-c4ccc(S(=O)(=O)C(C)C)cc4)nc23)cn1 [Compound I-51, 2-(4-isopropylsulfonylphenyl)-7-(6-methyl-3-pyridyl)-5H-pyrrolo[2,3-b]pyrazine]	10 to 50
CC(C)S(=O)(=O)c1ccc(-c2cnc3[nH]cc(-c4csc5ccccc45)c3n2)cc1 [Compound I-44, 7-(benzothiophen-3-yl)-2-(4-isopropylsulfonylphenyl)-5H-pyrrolo[2,3-b]pyrazine]	> 50
CC(C)S(=O)(=O)c1ccc(-c2cnc3[nH]cc(-c4cc5ccccc5n4C(=O)OC(C)(C)C)c3n2)cc1 [Compound I-61, tert-butyl 2-[2-(4-isopropylsulfonylphenyl)-5H-pyrrolo[2,3-b]pyrazin-7-yl]indole-1-carboxylate]	> 50
COc1ncc(-c2c[nH]c3ncc(-c4ccc(S(=O)(=O)C(C)C)cc4)nc23)cn1 [Compound I-34, 2-(4-isopropylsulfonylphenyl)-7-(2-methoxypyrimidin-5-yl)-5H-pyrrolo[2,3-b]pyrazine]	10 to 50
COc1ncc(-c2c[nH]c3ncc(-c4ccc(S(=O)(=O)C(C)C)cc4)nc23)c(OC)n1 [Compound I-46, 7-(2,4-dimethoxypyrimidin-5-yl)-2-(4-isopropylsulfonylphenyl)-5H-pyrrolo[2,3-b]pyrazine]	> 50
CC(C)S(=O)(=O)c1ccc(-c2cnc3[nH]cc(-c4cc5c(Cl)cccc5n4C(=O)OC(C)(C)C)c3n2)cc1 [Compound I-58, tert-butyl 4-chloro-2-[2-(4-isopropylsulfonylphenyl)-5H-pyrrolo[2,3-b]pyrazin-7-yl]indole-1-carboxylate]	> 50
COc1ccc(-c2c[nH]c3ncc(-c4ccc(S(=O)(=O)C(C)C)cc4)nc23)cn1 [Compound I-31, 2-(4-isopropylsulfonylphenyl)-7-(6-methoxy-3-pyridyl)-5H-pyrrolo[2,3-b]pyrazine]	> 50
COc1ccc(-c2c[nH]c3ncc(-c4ccc(S(=O)(=O)C(C)C)cc4)nc23)cc1 [Compound I-29, 2-(4-isopropylsulfonylphenyl)-7-(4-methoxyphenyl)-5H-pyrrolo[2,3-b]pyrazine]	> 50
COc1ccc2c(c1)cc(-c1c[nH]c3ncc(-c4ccc(S(=O)(=O)C(C)C)cc4)nc13)n2C(=O)OC(C)(C)C [Compound I-57, tert-butyl 2-[2-(4-isopropylsulfonylphenyl)-5H-pyrrolo[2,3-b]pyrazin-7-yl]-5-methoxy-indole-1-carboxylate]	> 50
Cc1cscc1-c1c[nH]c2ncc(-c3ccc(S(=O)(=O)C(C)C)cc3)nc12 [Compound I-27, 2-(4-isopropylsulfonylphenyl)-7-(4-methyl-3-thienyl)-5H-pyrrolo[2,3-b]pyrazine]	> 50
Cc1noc(C)c1-c1c[nH]c2ncc(-c3ccc(S(=O)(=O)C(C)C)cc3)nc12 [Compound I-25, 4-[2-(4-isopropylsulfonylphenyl)-5H-pyrrolo[2,3-b]pyrazin-7-yl]-3,5-dimethyl-isoxazole]	> 50
CC(C)S(=O)(=O)c1ccc(-c2cnc3[nH]cc(-c4ccsc4)c3n2)cc1 [Compound I-22, 2-(4-isopropylsulfonylphenyl)-7-(3-thienyl)-5H-pyrrolo[2,3-b]pyrazine]	10 to 50
CCn1cc(-c2c[nH]c3ncc(-c4ccc(S(=O)(=O)C(C)C)cc4)nc23)cn1 [Compound I-7, 7-(1-ethylpyrazol-4-yl)-2-(4-isopropylsulfonylphenyl)-5H-pyrrolo[2,3-b]pyrazine]	> 50
CC(C)S(=O)(=O)c1ccc(-c2cnc3[nH]cc(C#Cc4ccccc4)c3n2)cc1 [Compound I-2, 2-(4-Isopropylsulfonylphenyl)-7-(2-phenylethynyl)-5H-pyrrolo[2,3-b]pyrazine]	10 to 50
CC(C)S(=O)(=O)c1ccc(-c2cnc3[nH]cc(-c4cncc(S(C)(=O)=O)c4)c3n2)cc1 [Compound I-48, 2-(4-isopropylsulfonylphenyl)-7-(5-methylsulfonyl-3-pyridyl)-5H-pyrrolo[2,3-b]pyrazine]	10 to 50

Continued, values first:

Ki [nM]	Structure (SMILES)
10 to 50	CC(C)S(=O)(=O)c1ccc(-c2cnc3[nH]cc(-c4cc5ccccc5s4)c3n2)cc1 [Compound I-45, 7-(benzothiophen-2-yl)-2-(4-isopropylsulfonylphenyl)-5H-pyrrolo[2,3-b]pyrazine]
≤ 10	CC(C)S(=O)(=O)c1ccc(-c2cnc3[nH]cc(-c4cc(-c5ccccc5)no4)c3n2)cc1 [Compound I-3, 5-[2-(4-Isopropylsulfonylphenyl)-5H-pyrrolo[2,3-b]pyrazin-7-yl]-3-phenyl-isoxazole]
10 to 50	CC(C)S(=O)(=O)c1ccc(-c2cnc3[nH]cc(-c4ccc(F)nc4)c3n2)cc1 [Compound I-23, 7-(6-fluoro-3-pyridyl)-2-(4-isopropylsulfonylphenyl)-5H-pyrrolo[2,3-b]pyrazine]
10 to 50	CC(C)S(=O)(=O)c1ccc(-c2cnc3[nH]cc(-c4cccnc4)c3n2)cc1 [Compound I-1, 2-(4-Isopropylsulfonylphenyl)-7-(3-pyridyl)-5H-pyrrolo[2,3-b]pyrazine]
≤ 10	CC(C)S(=O)(=O)c1ccc(-c2cnc3[nH]cc(-c4csc(C(=O)O)c4)c3n2)cc1 [Compound I-64, 4-[2-(4-isopropylsulfonylphenyl)-5H-pyrrolo[2,3-b]pyrazin-7-yl]thiophene-2-carboxylic acid]
≤ 10	CC(C)S(=O)(=O)c1ccc(-c2cnc3[nH]cc(-c4cccnc4F)c3n2)cc1 [Compound I-24, 7-(2-fluoro-3-pyridyl)-2-(4-isopropylsulfonylphenyl)-5H-pyrrolo[2,3-b]pyrazine]
10 to 50	CC(C)S(=O)(=O)c1ccc(-c2cnc3[nH]cc(-c4ccc5[nH]ccc5c4)c3n2)cc1 [Compound I-35, 7-(1H-indol-5-yl)-2-(4-isopropylsulfonylphenyl)-5H-pyrrolo[2,3-b]pyrazine]
10 to 50	CC(C)S(=O)(=O)c1ccc(-c2cnc3[nH]cc(-c4cccc(-c5nnn[nH]5)c4)c3n2)cc1 [Compound I-68, 2-(4-isopropylsulfonylphenyl)-7-[3-(1H-tetrazol-5-yl)phenyl]-5H-pyrrolo[2,3-b]pyrazine]
≤ 10	CC(C)S(=O)(=O)c1ccc(-c2cnc3[nH]cc(-c4ccc(C(=O)O)s4)c3n2)cc1 [Compound I-62, 5-[2-(4-isopropylsulfonylphenyl)-5H-pyrrolo[2,3-b]pyrazin-7-yl]thiophene-2-carboxylic acid]
≤ 10	CC(C)S(=O)(=O)c1ccc(-c2cnc3[nH]cc(-c4ccc(N)nc4)c3n2)cc1 [Compound I-53, 5-[2-(4-isopropylsulfonylphenyl)-5H-pyrrolo[2,3-b]pyrazin-7-yl]pyridin-2-amine]
≤ 10	CC(N)c1cccc(-c2cc(-c3c[nH]c4ncc(-c5ccc(S(=O)(=O)C(C)C)cc5)nc34)on2)c1 (stereo not drawn) [Compound I-4, 1-[3-[5-[2-(4-isopropylsulfonylphenyl)-5H-pyrrolo[2,3-b]pyrazin-7-yl]isoxazol-3-yl]phenyl]ethanamine]
≤ 10	COc1cc(-c2c[nH]c3ncc(-c4ccc(S(=O)(=O)C(C)C)cc4)nc23)ccn1 [Compound I-33, 2-(4-isopropylsulfonylphenyl)-7-(2-methoxy-4-pyridyl)-5H-pyrrolo[2,3-b]pyrazine]
≤ 10	CC(C)S(=O)(=O)c1ccc(-c2cnc3[nH]cc(-c4cnc5[nH]ccc5c4)c3n2)cc1 [Compound I-6, 2-(4-isopropylsulfonylphenyl)-7-(1H-pyrrolo[2,3-b]pyridin-5-yl)-5H-pyrrolo[2,3-b]pyrazine]
